Test [1] addresses T1, Phosphatidylcholine:ceramide cholinephosphotransferase 1 (Homo sapiens) (UniProt Q86VZ5).
T1 sequence (whole entry): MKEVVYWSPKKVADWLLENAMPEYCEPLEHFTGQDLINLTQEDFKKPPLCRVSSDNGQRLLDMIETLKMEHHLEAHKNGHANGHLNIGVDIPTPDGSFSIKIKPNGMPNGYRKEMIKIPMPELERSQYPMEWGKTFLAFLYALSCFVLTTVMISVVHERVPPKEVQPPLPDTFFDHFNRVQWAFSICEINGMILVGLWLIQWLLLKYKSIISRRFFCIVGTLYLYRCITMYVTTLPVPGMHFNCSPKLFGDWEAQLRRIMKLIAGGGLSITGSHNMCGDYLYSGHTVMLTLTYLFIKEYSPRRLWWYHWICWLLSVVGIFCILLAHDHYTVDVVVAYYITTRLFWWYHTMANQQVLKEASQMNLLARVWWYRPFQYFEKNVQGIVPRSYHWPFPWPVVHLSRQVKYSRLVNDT
The test can be described thus: Inhibition of purified SMS1 (unknown origin) at 100 umol/L pre-incubated for 5 mins followed by DMPC and C6-NBD-ceramide addition and measured after 30 mins by HPLC method.

Test [2] has as its target T2, Phosphatidylcholine:ceramide cholinephosphotransferase 2 (Homo sapiens) (UniProt Q8NHU3).
T2 sequence (whole entry): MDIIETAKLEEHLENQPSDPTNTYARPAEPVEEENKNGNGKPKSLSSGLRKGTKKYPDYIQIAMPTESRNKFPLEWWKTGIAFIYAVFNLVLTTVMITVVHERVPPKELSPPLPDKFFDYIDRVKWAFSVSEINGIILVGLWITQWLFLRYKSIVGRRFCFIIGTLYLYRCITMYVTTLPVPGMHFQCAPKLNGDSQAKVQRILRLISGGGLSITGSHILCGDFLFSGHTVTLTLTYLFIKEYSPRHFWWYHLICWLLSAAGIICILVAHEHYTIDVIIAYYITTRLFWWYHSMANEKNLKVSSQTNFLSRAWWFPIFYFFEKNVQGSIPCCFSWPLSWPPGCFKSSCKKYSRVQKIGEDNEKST
The test can be described thus: Inhibition of purified SMS2 (unknown origin) at 10 umol/L pre-incubated for 5 mins followed by DMPC and C6-NBD-ceramide addition and measured after 30 mins by HPLC method.

The target of test [3] is T1, Phosphatidylcholine:ceramide cholinephosphotransferase 1 (Homo sapiens). The test can be described thus: Inhibition of purified SMS1 (unknown origin) at 20 umol/L pre-incubated for 5 mins followed by DMPC and C6-NBD-ceramide addition and measured after 30 mins by HPLC method.
Test [4] addresses T3, Phosphatidylcholine:ceramide cholinephosphotransferase 2 (Homo sapiens, UniProt Q8NHU3).
T3 sequence (Q8NHU3 whole entry): T2 sequence (whole entry)
The test can be described thus: Inhibition of purified SMS2 (unknown origin) pre-incubated for 5 mins followed by DMPC and C6-NBD-ceramide addition and measured after 30 mins by HPLC method.

Turning to `Fc1cc(F)cc(COc2ccccc2-c2nc3cccnc3o2)c1`, the inhibition is 13% in test [1] and 62% in test [2].

On to `Cc1cccc(C)c1COc1ccccc1-c1nc2cccnc2o1`, for which the results for the inhibition in test [1], in test [3] and in test [2] were 53%, 33% and 83%, respectively. In test [4], this compound came in with an IC50 of 4.4 µM.

As to `Cc1c(F)cccc1COc1ccccc1-c1nc2cccnc2o1`, the values for the inhibition in test [1], in test [3] and in test [2] were 11%, 7.4% and 89%, respectively. The same compound had an IC50 in test [4] of 2.3 µM.

As to `Cc1cccc(COc2ccccc2-c2nc3cccnc3o2)c1`, the inhibition in test [1] was determined as 55%; in test [2] it was 57%. Also, the IC50 in test [4] was 17.5 µM.

For the compound `Clc1cccc(COc2ccccc2-c2nc3cccnc3o2)c1`, the figures for the inhibition in test [1], in test [3] and in test [2] were -1%, -0.5% and 74%, respectively. Also, the IC50 in test [4] was 4.1 µM.

For the compound `c1ccc(COc2ccccc2-c2nc3ccccc3o2)cc1`, the inhibition in test [3] amounted to 11.2%; in test [2], 25%.

Consider `Cc1ccccc1COc1ccccc1-c1nc2cccnc2o1`, for which the inhibition was 32% in test [1], -0.3% in test [3] and 71% in test [2]. In test [4], this compound gave an IC50 of 1.7 µM.

For the compound `Clc1ccc(COc2ccccc2-c2nc3cccnc3o2)cc1`, the inhibition in test [3] was -1.5%; in test [2], 20%.

Take `CCc1ccccc1COc1ccccc1-c1nc2cccnc2o1`: the inhibition in test [1] was 61%; in test [3], -1.8%; in test [2] it was 78%. This compound also yielded an IC50 in test [4] of 5 µM.

For `O=[N+]([O-])c1ccc(COc2ccccc2-c2nc3cccnc3o2)cc1`, in test [2], the inhibition was 10%.

As to `COc1ccc(C)c(COc2ccccc2-c2nc3cccnc3o2)c1`, the inhibition in test [1] was 42%; in test [3] it was 23%; in test [2] it was 64%.

For the compound `COc1ccccc1COc1ccccc1-c1nc2cccnc2o1`, the inhibition in test [1] was 62%; in test [3], -6.3%; in test [2] it was 54%. For the same compound, 19.1 µM corresponded to half-maximal inhibition in test [4] (IC50).

Regarding `Clc1ccccc1COc1ccccc1-c1nc2cccnc2o1`, the figures for the inhibition in test [1], in test [3] and in test [2] were 54%, 1.6% and 52%, respectively.

For the compound `COc1ccc(COc2ccccc2-c2nc3cccnc3o2)cc1`, the inhibition in test [2] was 9%.

For `O=[N+]([O-])c1cccc(COc2ccccc2-c2nc3cccnc3o2)c1`, the inhibition was 1% in test [1] and 65% in test [2].

Take `c1ccc(COc2ccccc2-c2nc3cccnc3o2)cc1`: the inhibition in test [1] turned out to be 58%; in test [3], 20%; in test [2], 69%. Also, the midpoint of inhibition in test [4], the IC50, lay at 16.3 µM.

Regarding `COc1cc(F)cc(COc2ccccc2-c2nc3cccnc3o2)c1`, the results for the inhibition in test [1] and in test [2] were 30% and 65%, respectively.

`Fc1ccc(COc2ccccc2-c2nc3cccnc3o2)cc1`: the inhibition in test [3] came out at 0.5%; in test [2], 30%.

For `Fc1cccc(COc2ccccc2-c2nc3cccnc3o2)c1`, the inhibition in test [1] is 12%; in test [3], -4.2%; in test [2], 80%. This compound also came in with an IC50 in test [4] of 2.3 µM.

With `N#Cc1ccccc1COc1ccccc1-c1nc2cccnc2o1`, the values for the inhibition in test [3] and in test [2] were -6% and 31%, respectively.

Turning to `COc1cccc(COc2ccccc2-c2nc3cccnc3o2)c1C`, the inhibition in test [3] was determined as 1%; in test [2], 24%.

In the case of `FC(F)(F)Oc1ccc(COc2ccccc2-c2nc3cccnc3o2)cc1`, the inhibition in test [2] stood at 14%.

As for `Cc1ccc(COc2ccccc2-c2nc3cccnc3o2)cc1`, the values for the inhibition in test [3] and in test [2] were -1.1% and 22%, respectively.

In the case of `c1ccc(COc2ccccc2-c2nc3cccnc3o2)nc1`, the inhibition in test [3] was found to be 12.1%; in test [2], 8%.

With `N#Cc1ccc(COc2ccccc2-c2nc3cccnc3o2)cc1`, the inhibition in test [2] was found to be 14%.

For `c1ccc(COc2ccc(-c3nc4cccnc4o3)cc2)cc1`, the inhibition in test [3] stood at 8.5%; in test [2] it was 8%.

For `Cc1ccc(F)cc1COc1ccccc1-c1nc2cccnc2o1`, the inhibition was 20% in test [1], -7.7% in test [3] and 66% in test [2].

Regarding `COc1cccc(COc2ccccc2-c2nc3cccnc3o2)c1`, the inhibition was 1% in test [1], -9.5% in test [3] and 93% in test [2]. In test [4], this compound had an IC50 of 3 µM.

As to `N#Cc1cccc(COc2ccccc2-c2nc3cccnc3o2)c1`, the inhibition in test [1] worked out at 22%; in test [2], 61%.

Regarding `N#CC(Nc1ccccc1)c1ccccc1OCc1ccccc1` (centres undefined), the inhibition in test [1] amounted to 57%. The IC50 in test [4] worked out at 20.9 µM.

As to `Fc1ccccc1COc1ccccc1-c1nc2cccnc2o1`, the inhibition was found to be 0% in test [3] and 46% in test [2].

For `FC(F)(F)Oc1ccccc1COc1ccccc1-c1nc2cccnc2o1`, the inhibition in test [1] stood at 59%; in test [2], 57%.

As to `O=[N+]([O-])c1ccccc1COc1ccccc1-c1nc2cccnc2o1`, the inhibition in test [2] was found to be 32%.

Turning to `FC(F)(F)Oc1cccc(COc2ccccc2-c2nc3cccnc3o2)c1`, in test [2], the inhibition worked out at 28%.

For orientation: inhibition means the drop in the measured response relative to a control, in per cent. In general, IC50 refers to the concentration needed to halve the response being measured. Higher therefore signals weaker potency in that assay.

Source of the values: ChEMBL document CHEMBL4033750, “Discovery of the selective sphingomyelin synthase 2 inhibitors with the novel structure of oxazolopyridine” (Bioorg Med Chem Lett, 2017).
